Where a name gives a salt, the structure may show the parent alone.
Key:
[1] = tested on: Langendorff's isolated heart (coronary flow); assay: Langendorff isolated heart (increase in coronary flow); conditions: tested at 30.0 to 0.01 micromolar
Procedure: In addition to their utility in the treatment of hypertension, the compounds of formula (I) are useful in the treatment of the symptoms of angina pectoris by virtue of their ability to dilate coronary arteries. Their activity was measured using the "Langendorff's isolated heart" preparation. This test has been described in "Pharmacological Experiments on Isolated Preparations", Staff of the Department of Pharmacology, University of Edinbourgh, 2nd Ed., Churchill Livingstone, N.Y., 1970, pp 112-119. The test compounds were administered at concentrations of 30.0, 10.0, 3.0, 1.0, 0.3, 0.1, 0.03 and 0.01 micromolar (10^-6 molar). The minimum concentration EC30) needed to elicit a 30% increase in coronary flow is shown in Table I for compounds of formula (I).

[2] = tested on: spontaneously hypertensive rats (mean arterial pressure); assay: Spontaneously Hypertensive Rat (SHR) test, fall in mean arterial pressure; type: in vivo; conditions: active if fall >15 mm of Hg
Procedure: The activity of compounds of formula (I) for the treatment of hypertension was determined using the Spontaneously Hypertensive Rat (SHR) test as described below. Spontaneously Hypertensive Rat Test In this test, the arterial pressure of adult spontaneously hypertensive rats (Charles River) is monitored directly via an aortic cannula. The SH rats are anesthetized with an inhalation anesthetic (ether). The left carotoid artery is isolated and cannulated. The tip of the cannula is advanced to the aorta and the cannula is exteriorized behind the neck at the level of the scapula. Animals are placed in individual cages, allowed to recover from the anesthetic and are kept unrestrained. The arterial cannula is connected to a pressure transducer which is attached to a recorder. The test compounds are administered to at least 3 rats at doses selected in the range of 0.1 to 100 mg/kg of body weight by i.p. or p.o. routes of administration. The arterial pressure and heart rate are monitored for a minimum of 24 hr. A test compound is considered to be active as an antihypertensive agent if the mean arterial pressure (MAP) indicates a fall (δMAP) of >15 mm of Hg. Each animal serves as its own control.

Row | Compound | Langendorff EC30 (minimum concentration needed to elicit a 30% increase in coronary flow) [1] | SHR δMAP (change in mean arterial pressure) ([2]; 10 mg/kg i.p.) | SHR δMAP (change in mean arterial pressure) ([2]; 30 mg/kg i.p.) | SHR δMAP (change in mean arterial pressure) ([2]; 30 mg/kg p.o.)
1 | CC(C)COCC(CN1Cc2ccccc2Cc2ccccc21)N1CCCC1 (centres unmarked) [Example 1, 5,6-Dihydro-5-[3-(2-methylpropoxy)-2-(1-pyrrolidinyl)-propyl]-11H -dibenz[b,e]azepine] | .013 10^-6 M | -37 mm of Hg | -65 mm of Hg | –
2 | CC(C)COCC(CN1Cc2ccccc2CCc2ccccc21)N1CCCC1 (stereo not drawn) [Example 2b, 5,6,11,12-Tetrahydro-5-beta-[3-(2-methylpropoxy)-2-(1-pyrrolidinyl)propyl]dibenz[b,f]azocine Hydrate (5:1)] | .150 10^-6 M | – | – | -25 mm of Hg
3 | CC(C)(C)COCC(CN1Cc2ccccc2Cc2ccccc21)N1CCCC1.O=C(O)/C=C/C(=O)O (centres unmarked) [Example 3c, 5,6-Dihydro-5-[3-(2,2-dimethylpropoxy)-2-(1-pyrrolidinyl)propyl]-11H-dibenz[b,e]azepine (E)-2-Butenedioate] | .004 10^-6 M | -54 mm of Hg | – | -2 mm of Hg
4 | CC(C)COCC(CN1c2ccccc2CCc2ccccc21)N1CCCC1 (centres unmarked) [Example 4, 10,11-dihydro-5-[3-(2-methylpropoxy)-2-(1-pyrrolidinyl)propyl]-5H-dibenz[b,f]azepine] | .011 10^-6 M | -65 mm of Hg | – | –
5 | CC(C)(C)COCC(CN1Cc2ccccc2Oc2ccccc21)N1CCCC1.O=C(O)/C=C/C(=O)O (centres unmarked) [Example 5b, 10,11-Dihydro-10-[3-(2,2-dimethylpropoxy)-2-(1-pyrrolidinyl)propyl]dibenz[b,f][1,4]oxazepine (E)-2-Butenedioate] | .04 10^-6 M | -70 mm of Hg | – | -20 mm of Hg
6 | CC(C)(C)COCC(CN1c2ccccc2C=Cc2ccccc21)N1CCCC1 (centres unmarked) [Example 6, 5-[3-(2,2 Dimethylpropxy)-2-(1-pyrrolidinyl)propyl]-5H-dibenz[b,f]azepine Hydrochloride] | .001 10^-6 M | -27 mm of Hg | – | –
7 | CC1(COCC(CN2c3ccccc3Oc3ccccc32)N2CCCC2)CCCCC1.Cl (centres unmarked) [Example 7d, 10-[3-[(1-Methylcyclohexyl)methoxy]-2-(1-pyrrolidinyl)-propyl]-10H-phenoxazine Hydrochloride (1:1)] | .012 10^-6 M | – | – | -24 mm of Hg
8 | CC1(COCC(CN2c3ccccc3C=Cc3ccccc32)N2CCCC2)CCCCC1 (centres unmarked) [Example 8, 5-[3-[(1-methylcyclohexyl)methoxy]-2-(1-pyrrolidinyl)propyl]-5H-dibenz[b,f]azepine] | .0037 10^-6 M | – | – | -12 mm of Hg
9 | CC(C)COCC(CN1c2ccccc2Sc2ccccc21)N1CCCC1 (centres unmarked) [Example 9, 10-[3-(2-Methylpropoxy)-2-(1-pyrrolidinyl)propyl]-10H-phenothiazine] | .30 10^-6 M | -22 mm of Hg | – | -19 mm of Hg
10 | C=C(C)COCC(CN1c2ccccc2C=Cc2ccccc21)N1CCCC1 (centres unmarked) [Example 10, 5-[3-(2-methyl-2-propenoxy)-2-(1-pyrrolidinyl)propyl]-5H-dibenz[b,f]azepine] | – | – | – | -25 mm of Hg

From patent publication US4888335A, “3-alkoxy-2-aminopropyl heterocyclic amines and their use as cardiovascular agents” (McNeilab, Inc., priority 1988, dated 1989)
